Results from EPA's ToxRefDB 2.

Columns and labels:
[1] = tested on: mouse; conditions: Carcinogenicity; cd1; Inhalation; Whole-Body; dose end: 18 month; group: systemic; systemic / in life observation / body weight / body weight gain + systemic / in life observation / mortality / mortality + systemic / …
[2] = tested on: rat; conditions: Subchronic oral toxicity in rodents, fischer, Inhalation, Whole-Body, dose end: 90 day, group: systemic
[3] = tested on: dog; conditions: Subchronic inhalation toxicity, beagle, Whole-Body, dose end: 13 week, group: systemic, systemic / in life observation / body weight / body weight + systemic / in life observation / body weight / body weight gain + systemic / …
[4] = tested on: rabbit; conditions: Subchronic inhalation toxicity, new zealand white, Whole-Body, dose end: 13 week, group: systemic
[5] = tested on: dog; conditions: Chronic toxicity; beagle; Inhalation; Whole-Body; dose end: 12 month; group: systemic; systemic / in life observation / body weight / body weight gain + systemic / in life observation / clinical signs / dental fluorosis + …
[6] = tested on: rat; conditions: Multigenerational reproductive toxicity study, sprague dawley, Inhalation, Whole-Body, dose end: 2 generation
[7] = tested on: rat; conditions: Multigenerational reproductive toxicity study, sprague dawley, Inhalation, Whole-Body, dose end: 2 generation; remark: listed apart in the source
[8] = tested on: mouse; conditions: Subchronic inhalation toxicity, cd1, Whole-Body, dose end: 13 week, group: systemic
[9] = tested on: rat; conditions: Subchronic inhalation toxicity, fischer, Whole-Body, dose end: 14 day, group: systemic
[10] = tested on: rat; conditions: Combined chronic toxicity/carcinogenicity, fischer, Inhalation, Whole-Body, dose end: 104 week, group: systemic
[11] = tested on: rabbit; conditions: Subchronic inhalation toxicity, new zealand white, Whole-Body, dose end: 14 day, group: systemic, systemic / pathology microscopic / brain / necrosis + systemic / pathology microscopic / brain / vacuolization + systemic / pathology …
[12] = tested on: rat; conditions: Prenatal developmental toxicity study, other, Oral, Gavage/Intubation, dose end: 15 GD
[13] = tested on: dog; conditions: Subchronic oral toxicity in nonrodent, beagle, Feed, dose end: 14 week, group: systemic
[14] = systemic / organ weight / brain / absolute + systemic / in life observation / clinical signs / tooth-mottling + systemic / pathology …
[15] = systemic / pathology microscopic / nose / inflammation
[16] = systemic / in life observation / body weight / body weight + systemic / in life observation / body weight / body weight gain + systemic / …
[17] = systemic / pathology microscopic / nose / inflammation + systemic / clinical chemistry / flouride / fluoride
[18] = group: offspring, systemic / in life observation / body weight / offspring (pup) weight
[19] = group: parental, systemic / pathology gross / lung / foci + systemic / pathology microscopic / lung / alveolar macrophages
[20] = group: parental, systemic / pathology gross / lung / foci + systemic / pathology microscopic / lung / alveolar macrophages + systemic / in life observation…
[21] = group: parental, systemic / pathology microscopic / lung / alveolar macrophages + systemic / in life observation / body weight / body weight + systemic / in …
[22] = group: parental, systemic / pathology microscopic / lung / alveolar macrophages + systemic / pathology gross / lung / foci
[23] = systemic / pathology microscopic / kidney / hyperplasia + systemic / pathology microscopic / kidney / basophilia
[24] = systemic / pathology microscopic / kidney / hyperplasia + systemic / pathology microscopic / kidney / basophilia + systemic / in life …
[25] = systemic / in life observation / clinical signs / dental fluorosis
[26] = systemic / in life observation / clinical signs / dental fluorosis + systemic / clinical chemistry / albumin / albumin + systemic / clinical…
[27] = group: developmental, developmental / developmental malformation / bone / fused
[28] = group: developmental, developmental / developmental malformation / bone / fused + developmental / developmental malformation / bone / incomplete ossification + …
[29] = group: maternal, systemic / in life observation / body weight / body weight gain + systemic / in life observation / food consumption / food consumption
[30] = systemic / in life observation / food consumption / food efficiency + systemic / in life observation / body weight / body weight gain + …

`O=S(=O)(F)F` [Sulfuryl fluoride] showed an LEL [1] of 79.3 mg/kg/day, an LOAEL [1] of 79.3 mg/kg/day and an NEL [1] of 19.8 mg/kg/day. For the same molecule, the NOAEL [1] was 19.8 mg/kg/day, the LOAEL [2, 14] was 5 mg/kg/day and the NOAEL [2, 14] was 1.49 mg/kg/day. For the same molecule, the LEL [2, 15] was 1.49 mg/kg/day, the NEL [2, 15] was less than 1.49 mg/kg/day and the LEL [3] was 200 ppm. The LOAEL [3] was 200 ppm, the NEL [3] was 100 ppm and the NOAEL [3] was 100 ppm. For the same molecule, the LOAEL [4, 16] was 100 ppm, the NOAEL [4, 16] was 29.8 ppm and the LEL [4, 17] was 29.8 ppm. It also gave an NEL [4, 17] of less than 29.8 ppm, an LEL [5] of 80 ppm and an LOAEL [5] of 80 ppm. For the same molecule, the NEL [5] was 20 ppm, the NOAEL [5] was 20 ppm and the LEL [6, 18] was 108 mg/kg/day. For the same molecule, the LOAEL [6, 18] was 108 mg/kg/day, the NEL [6, 18] was 14 mg/kg/day and the NOAEL [6, 18] was 14 mg/kg/day. For the same molecule, the LEL [6, 19] was 14 mg/kg/day, the LOAEL [6, 19] was 14 mg/kg/day and the NEL [6, 20] was 3.6 mg/kg/day. For the same molecule, the NOAEL [6, 20] was 3.6 mg/kg/day, the LEL [7, 18] was 108 mg/kg/day and the LOAEL [7, 18] was 108 mg/kg/day. The NEL [7, 18] was 14 mg/kg/day, the NOAEL [7, 18] was 14 mg/kg/day and the NEL [7, 21] was 3.6 mg/kg/day. It also gave an NOAEL [7, 21] of 3.6 mg/kg/day, an LEL [7, 22] of 14 mg/kg/day and an LOAEL [7, 22] of 14 mg/kg/day. For the same molecule, the LEL ([8]; systemic / clinical chemistry / flouride / fluoride) was 30 ppm, the LOAEL [8, 16] was 100 ppm and the NEL [8, 16] was 10 ppm. The NOAEL [8, 16] was 30 ppm, the LEL [9, 23] was 249 mg/kg/day and the LOAEL [9, 23] was 249 mg/kg/day. The NEL [9, 24] was 83 mg/kg/day, the NOAEL [9, 24] was 83 mg/kg/day and the LEL [10, 25] was 20 ppm. The LOAEL [10, 25] was 20 ppm, the NEL [10, 26] was 5 ppm and the NOAEL [10, 26] was 5 ppm. The LEL [11] was 90 mg/kg/day, the LOAEL [11] was 90 mg/kg/day and the NEL [11] was 30 mg/kg/day. It also gave an NOAEL [11] of 30 mg/kg/day.

`CCNc1nc(N)nc(Cl)n1` [Deisopropylatrazine] was tested, and the LEL [12, 27] was 25 mg/kg/day, the LOAEL [12, 27] was 25 mg/kg/day and the NEL [12, 28] was 5 mg/kg/day. It also gave an NOAEL [12, 28] of 5 mg/kg/day, an LEL [12, 29] of 25 mg/kg/day and an LOAEL [12, 29] of 25 mg/kg/day. It also gave an NEL [12, 29] of 5 mg/kg/day, an NOAEL [12, 29] of 5 mg/kg/day and an LOAEL ([13]; systemic / in life observation / food consumption / food efficiency) of 18 mg/kg/day. For the same molecule, the LEL [13, 30] was 18 mg/kg/day, the NEL [13, 30] was 3.8 mg/kg/day and the NOAEL [13, 30] was 3.8 mg/kg/day.
